Results taken from US3989687A, “4-Oxo-1-pyridinyl penicillin derivatives” (Richardson-Merrell Inc., priority 1975, dated 1976).
Values after ≈ are worked out from the molar mass of the structure shown. Structures can show the parent of a compound that is named as a salt. Where two headings read alike, the source gives them in different places.

Key:
[1] = test system: Staphylococcus aureus; experiment: in vitro agar plate filter paper disc test, zones of inhibition: Staphylococcus aureus; assay type: cell-based; conditions: read-out: Minimal inhibiting concentration, Staphylococcus aureus
Method: (§1) Specific nutrient agar plates are completely innoculated with the various test organisms. Filter paper discs are placed on the surface of the agar and wetted with 0.1 ml. of a solution containing 10, 100 and 1,000 micrograms of the test compound. Zones of inhibition of microbial growth are used to indicate the antibacterial activity of the test compound against the various test organisms employed.
(§2) The following table summarizes the in vitro activity of the following representative compounds: 6-[2-(4-oxo-1-pyridinyl)acetylamino]penicillanicacid, sodium salt (1), 7-[2-(4-oxo-1-pyridinyl)acetylamino]desacetoxycephalosporanic acid (2), 6-[2-(3,5-diiodo-4-oxo-1-pyridinyl)acetylamino]penicillanic acid, sodium salt (3), 7-[2-(2,6-dimethyl-4-oxo-1-pyridinyl)acetylamino]desacetoxycephalosporanicacid, sodium salt (4), 7-[2-(4-oxo-1-pyridinyl)acetylamino]cephalosporanicacid, sodium salt (5) and 6-[2-(4-oxo-1-quinolinyl)acetylamino]penicillanic acid, sodium salt (6).

[2] = test system: Salmonella schottmuelleri; experiment: in vitro agar plate filter paper disc test, zones of inhibition: Salmonella schottmuelleri; assay type: cell-based; conditions: read-out: Minimal inhibiting concentration, Salmonella schottmuelleri
Method: as §1, §2

[3] = test system: Streptococcus pyogenes; experiment: in vitro agar plate filter paper disc test, zones of inhibition: Streptococcus pyogenes; assay type: cell-based; conditions: read-out: Minimal inhibiting concentration, Streptococcus pyogenes
Method: as §1, §2

[4] = test system: (Penicillinase Producing) Staphylococcus aureus; experiment: in vitro agar plate filter paper disc test, zones of inhibition: penicillinase producing Staphylococcus aureus; assay type: cell-based; conditions: read-out: Minimal inhibiting concentration, (Penicillinase Producing) Staphylococcus aureus
Method: as §1, §2

[5] = acid resistance; assay type: physicochemical
[6] = in vitro, 0.1 ml. of a solution containing 10, 100 and 1,000 micrograms on filter paper discs
[7] = in vitro, penicillinase producing strain, 0.1 ml. of a solution containing 10, 100 and 1,000 micrograms on filter paper discs

| SMILES | MIC [1] [µg/mL] | MIC [2] [µg/mL] | MIC [3] [µg/mL] | MIC [4] [µg/mL] | Acid Resistance [5] | MIC [1, 6] [µg/mL] | MIC [2, 6] [µg/mL] | MIC [3, 6] [µg/mL] | MIC [4, 7] [µg/mL] |
| --- | --- | --- | --- | --- | --- | --- | --- | --- | --- |
| CC1(C)S[C@@H]2C(NC(=O)Cn3ccc(=O)cc3)C(=O)N2[C@H]1C(=O)[O-].[Na+] (stereo partly drawn) [(1), 6-[2-(4-oxo-1-pyridinyl)acetylamino]penicillanicacid, sodium salt] | 10 | 100 | 1000 | 1000 | Yes | – | – | – | – |
| CC1=C(C(=O)O)N2C(=O)C(NC(=O)Cn3ccc(=O)cc3)C2SC1 (stereo not drawn) [(2), 7-[2-(4-oxo-1-pyridinyl)acetylamino]desacetoxycephalosporanic acid] | – | – | – | – | Yes | 1000 (≈ 2860 µM) | > 1000 | 1000 (≈ 2860 µM) | > 1000 |
| CC1(C)S[C@@H]2C(NC(=O)Cn3cc(I)c(=O)c(I)c3)C(=O)N2[C@H]1C(=O)[O-].[Na+] (stereo partly drawn) [(3), 6-[2-(3,5-diiodo-4-oxo-1-pyridinyl)acetylamino]penicillanic acid, sodium salt] | 10 | 100 | > 1000 | > 1000 | Yes | – | – | – | – |
| CC1=C(C(=O)O)N2C(=O)C(NC(=O)Cn3c(C)cc(=O)cc3C)C2SC1 (stereo not drawn) [(4), 7-[2-(2,6-dimethyl-4-oxo-1-pyridinyl)acetylamino]desacetoxycephalosporanicacid, sodium salt] | – | – | – | – | Yes | 1000 | > 1000 | > 1000 | > 1000 |
| CC(=O)OCC1=C(C(=O)O)N2C(=O)C(NC(=O)Cn3ccc(=O)cc3)C2SC1 (stereo not drawn) [(5), 7-[2-(4-oxo-1-pyridinyl)acetylamino]cephalosporanicacid, sodium salt] | – | – | – | – | Yes | 10 | 100 | 100 | 1000 |
| CC1(C)S[C@@H]2C(NC(=O)Cn3ccc(=O)c4ccccc43)C(=O)N2[C@H]1C(=O)[O-].[Na+] (stereo partly drawn) [(6), 6-[2-(4-oxo-1-quinolinyl)acetylamino]penicillanic acid, sodium salt] | 10 | 100 | 1000 | 1000 | Yes | – | – | – | – |
